Tests used:
[1] = molecular target: PI3Kβ (p110β) (Homo sapiens, UniProt P42338); assay: ADP-Glo kinase inhibition, PI3Kβ; settings: read-out: IC50 PI3Kβ Biochemical
Description: In Example 7, the inhibitory effects of Sample 6 prepared in Example 6 above on kinases PI3Kα, PI3Kβ, PI3Kγ and PI3Kδ were tested.
The kinases used in the experiment were respectively purchased from: • PI3Kα (p110α/p85α), purchased from Invitrogen, under Cat. No. PV4788; • PI3Kβ (p110β), purchased from eurofins, under Cat. No. 14-603M; • PI3Kδ (p110δ/p85a), purchased from Invitrogen, under Cat. No. PV6452; and • PI3Kγ (p110γ), purchased from Invitrogen, under Cat. No. PR8641C. • Firstly, a 1× kinase buffer solution was prepared, which comprised: • 50 mM HEPES, pH 7.5 • 3 mM MgCl2 • 1 mM EGTA • 100 mM NaCl • 0.03% CHAPS • 2 mM DTT
On kinases PI3Kα, PI3Kβ and PI3Kγ, the final detection concentration of the compound was 10 μM. 100× concentration was prepared, i.e., 1000 μM. 90 μL of 100% DMSO was added to the second well in row A on a 96-well plate, 10 μL of a 10 mM compound solution was then added, and 3-fold serial dilution was made to obtain a total of 10 concentrations.
50 μL of 100% DMSO was transferred to two empty wells as Max well and Min well, respectively.
50 nL of the compound was transferred into a 384-well plate using ECHO550.
Preparation of 2× kinase solution: the kinase was added to a 1× kinase buffer to prepare a 2× enzyme solution. […]
Finally, the chemiluminescence values were read from Envision 2104 Multi-label Reader and subjected to curve fitting, and IC50 was calculated.

[2] = Dynamic water desorption analysis (DVS), hygroscopicity; format: physicochemical
Description: (§1) The instrument model used for DVS analysis was IGA Sorp (Hidentity Isochema). The sample was measured in a gradient mode, the humidity range for the test was from 0% to 90%, and the humidity increment of each gradient was 10%. The time to keep at each humidity gradient was from 30 min to 2 h.
It was determined by NMR and TGA that the sample had essentially no weight loss and no solvent residue before decomposition.
as §1, with “Sample 3 was taken as an example for dynamic water desorption analysis (DVS) characterization. The instrument” for “The instrument”

[3] = tested on: mouse breast cancer 4T1; assay: Mouse breast cancer 4T1 subcutaneous transplantation tumor model; format: in vivo
Text: WT cell subcutaneous transplantation tumor model.

[4] = molecular target: T1, PI3Kα (Mus musculus, UniProt P42337); assay: Akt phosphorylation in C2Cl2 cells stimulated by IGF-1 (AlphaLISA); settings: phosphorylation of Akt, C2C12 cells, read-out: IC50 PI3Kα Cell-based
T1 construct: host or cells: C2C12 cells
Description: In addition, taking Sample 6 as an example, the inhibitory effects thereof on PI3Kα, PI3Kβ, PI3Kγ and PI3Kδ in corresponding cells were determined. The activity of PI3Kα was detected by the phosphorylation level of Akt in C2Cl2 cells stimulated by IGF-1, the activity of PI3Kβ was detected by the phosphorylation level of Akt in PC-3 cells stimulated by LPA, the activity of PI3Kγ was detected by the phosphorylation level of Akt in Raw264.7 cells stimulated by c5α, and the activity of PI3Kδ was detected by the phosphorylation level of Akt in Raji cells stimulated by IgM. The phosphorylation level of Akt in cells was determined by means of AlphaLISA technique from PerkinElemer.
The C2C12 cells, PC-3 cells, Raw264.7 cells and Raji cells were all purchased from ATCC.

[5] = tested on: SU-DHL-6; assay: Proliferation of lymphoma cell line in vitro, SU-DHL-6; format: cell-based; settings: Homo sapiens, read-out: absolute IC50 (AbsIC50), proliferation
[6] = tested on: human-derived lymphoma DoHH-2 cell line; assay: Human-derived lymphoma DoHH-2 subcutaneous xenograft in CB17/SCID female immunodeficient mice; format: in vivo, mouse; settings: Day 24
Description: In Example 8, the anti-tumor effects of p-toluenesulfonate of Compound A at various dosages by intragastric administration on human-derived lymphoma DoHH-2 cell line subcutaneous transplantation CB17/SCID female immunodeficient mouse model were evaluated.
7-9-week-old CB17/SCID female immunodeficient mice were subcutaneously inoculated with […] DoHH-2 cells to establish a subcutaneous human lymphoma xenograft tumor model. When the average tumor volume in the mice reached 68 mm^3, the mice were randomly divided into groups and dosed on the day of grouping. The treatment method for each treatment group and vehicle control group was as follows:
p-toluenesulfonate of Compound A (Sample 6), given 100 mg/kg (p.o. QD) group, once daily, for 25 days (days 0-24);
p-toluenesulfonate of Compound A (Sample 6), given 30 mg/kg (p.o. QD) group, once daily, for 25 days (days 0-24);
positive treatment group (Duvelisib, purchased from Shanghai Lollane biological technology Co., Ltd.), given 50 mg/kg (p.o. BID) twice daily with an interval of 12 h, for 24 days; and
vehicle control group (5% DMSO/40% PEG400/55% water, by volume) (p.o. QD), given once daily, for 25 days (days 0-24).
There were 10 mice in each group, and all the mice were administered starting on the day of grouping (Day 0) and euthanized on Day 24 after grouping (Day 24). The efficacy was evaluated according to the tumor volume at the end point of the experiment.
The abbreviation p.o. stood for oral gavage, QD stood for once daily, and BID stood for twice daily.
The relative tumor inhibition rate (TGI) was calculated by the following formula: […]
T and C were respectively the average tumor volumes in the experimental group and the vehicle control group at a specific time point.

T1 sequence (P42337 whole entry): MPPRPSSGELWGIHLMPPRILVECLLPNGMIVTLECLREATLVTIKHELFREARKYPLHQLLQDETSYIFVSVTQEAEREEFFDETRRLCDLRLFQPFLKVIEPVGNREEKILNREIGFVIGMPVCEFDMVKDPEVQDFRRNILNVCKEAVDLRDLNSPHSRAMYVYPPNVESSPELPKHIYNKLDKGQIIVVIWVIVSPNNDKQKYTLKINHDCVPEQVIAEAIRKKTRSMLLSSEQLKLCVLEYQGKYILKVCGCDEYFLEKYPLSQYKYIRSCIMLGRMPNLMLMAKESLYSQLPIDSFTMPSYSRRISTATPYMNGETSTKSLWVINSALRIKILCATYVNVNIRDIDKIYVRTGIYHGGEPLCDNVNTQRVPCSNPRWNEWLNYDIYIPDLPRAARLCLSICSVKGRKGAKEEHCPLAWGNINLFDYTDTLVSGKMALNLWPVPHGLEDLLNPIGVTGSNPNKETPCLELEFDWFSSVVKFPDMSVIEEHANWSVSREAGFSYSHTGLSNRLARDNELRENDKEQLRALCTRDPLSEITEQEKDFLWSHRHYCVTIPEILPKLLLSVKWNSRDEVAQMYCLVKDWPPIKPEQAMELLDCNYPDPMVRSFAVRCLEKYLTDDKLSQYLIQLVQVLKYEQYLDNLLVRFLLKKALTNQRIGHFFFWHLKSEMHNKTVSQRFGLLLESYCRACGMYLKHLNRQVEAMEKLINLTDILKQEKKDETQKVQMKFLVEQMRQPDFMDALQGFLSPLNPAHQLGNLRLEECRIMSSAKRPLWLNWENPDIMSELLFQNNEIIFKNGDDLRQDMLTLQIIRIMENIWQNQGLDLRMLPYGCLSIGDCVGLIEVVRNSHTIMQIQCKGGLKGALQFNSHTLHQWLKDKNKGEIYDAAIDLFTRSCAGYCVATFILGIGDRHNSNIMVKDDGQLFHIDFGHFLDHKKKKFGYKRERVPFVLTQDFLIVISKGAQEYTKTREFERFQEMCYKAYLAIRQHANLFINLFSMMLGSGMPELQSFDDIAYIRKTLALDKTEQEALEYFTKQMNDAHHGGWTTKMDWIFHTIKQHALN
T1 sequence (P26450 whole entry partner): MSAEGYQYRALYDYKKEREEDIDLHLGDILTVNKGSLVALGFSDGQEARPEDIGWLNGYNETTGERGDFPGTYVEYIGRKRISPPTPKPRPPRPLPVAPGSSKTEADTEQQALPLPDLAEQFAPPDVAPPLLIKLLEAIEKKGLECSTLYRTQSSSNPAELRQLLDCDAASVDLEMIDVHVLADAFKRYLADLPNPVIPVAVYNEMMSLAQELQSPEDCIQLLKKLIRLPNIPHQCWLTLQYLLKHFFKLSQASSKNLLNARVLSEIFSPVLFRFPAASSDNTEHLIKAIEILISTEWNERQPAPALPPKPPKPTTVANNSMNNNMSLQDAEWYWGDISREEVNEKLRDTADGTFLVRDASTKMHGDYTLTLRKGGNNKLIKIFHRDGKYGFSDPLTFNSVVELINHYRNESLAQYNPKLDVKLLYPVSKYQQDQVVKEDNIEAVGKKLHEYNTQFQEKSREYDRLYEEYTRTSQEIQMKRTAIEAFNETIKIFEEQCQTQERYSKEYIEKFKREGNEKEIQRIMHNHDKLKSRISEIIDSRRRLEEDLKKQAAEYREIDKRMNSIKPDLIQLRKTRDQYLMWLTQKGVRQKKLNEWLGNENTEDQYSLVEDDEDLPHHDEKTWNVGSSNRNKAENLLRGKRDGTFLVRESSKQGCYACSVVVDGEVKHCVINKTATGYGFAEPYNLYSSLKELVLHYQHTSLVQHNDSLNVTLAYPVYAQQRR
Chain of PI3Kβ (p110β) (P42338 whole entry): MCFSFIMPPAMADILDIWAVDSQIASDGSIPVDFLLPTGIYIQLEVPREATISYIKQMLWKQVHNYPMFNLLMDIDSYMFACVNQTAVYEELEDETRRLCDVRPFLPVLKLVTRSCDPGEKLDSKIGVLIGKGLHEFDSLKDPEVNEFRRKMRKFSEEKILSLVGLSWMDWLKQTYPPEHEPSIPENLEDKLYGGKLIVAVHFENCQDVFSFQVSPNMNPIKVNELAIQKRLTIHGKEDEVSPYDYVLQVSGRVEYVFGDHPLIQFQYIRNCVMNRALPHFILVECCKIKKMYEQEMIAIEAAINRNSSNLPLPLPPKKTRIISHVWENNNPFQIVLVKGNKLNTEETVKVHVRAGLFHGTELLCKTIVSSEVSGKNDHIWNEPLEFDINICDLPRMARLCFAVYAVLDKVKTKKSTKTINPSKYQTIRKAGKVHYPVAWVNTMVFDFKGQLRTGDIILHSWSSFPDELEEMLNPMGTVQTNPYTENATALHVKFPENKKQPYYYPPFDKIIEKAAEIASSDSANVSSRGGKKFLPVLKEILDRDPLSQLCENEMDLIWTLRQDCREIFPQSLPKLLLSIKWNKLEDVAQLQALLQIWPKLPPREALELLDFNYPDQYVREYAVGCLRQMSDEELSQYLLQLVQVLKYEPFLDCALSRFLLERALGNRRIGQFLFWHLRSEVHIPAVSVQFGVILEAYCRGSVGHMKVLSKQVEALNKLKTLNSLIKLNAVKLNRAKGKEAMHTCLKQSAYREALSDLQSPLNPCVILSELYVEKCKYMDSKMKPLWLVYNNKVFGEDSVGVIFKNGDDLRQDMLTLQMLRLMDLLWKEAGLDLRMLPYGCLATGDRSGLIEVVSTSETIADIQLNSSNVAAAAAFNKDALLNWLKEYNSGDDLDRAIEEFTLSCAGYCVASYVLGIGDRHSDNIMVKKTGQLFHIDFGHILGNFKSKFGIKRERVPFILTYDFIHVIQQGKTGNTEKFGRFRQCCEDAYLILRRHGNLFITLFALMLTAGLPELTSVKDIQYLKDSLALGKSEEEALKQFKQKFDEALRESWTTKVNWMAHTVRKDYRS

SMILES: C[C@H](Nc1nc(N)nc(N)c1C#N)c1cc2ccc(F)cc2nc1-c1ccccn1 [p-toluenesulfonate of Compound A]
- IC50 [1]: 44 nM
- crystal form before and after humidity change (XRPD after DVS) ([2]; 0% to 90% RH): remained unchanged
- moisture absorbed (DVS) ([2]; at 90% RH): 0.92%
- effect on tumor volume growth [3]: significant inhibitory effect
- IC50 [4]: 3520 nM
- IC50 [5]: < 100 nM
- average tumor volume ([6]; 30 mg/kg p.o. QD): 984.45 mm^3
- relative tumor inhibition rate (TGI) ([6]; 30 mg/kg p.o. QD): 54%
- average tumor volume ([6]; 100 mg/kg p.o. QD): 549.05 mm^3
- relative tumor inhibition rate (TGI) ([6]; 100 mg/kg p.o. QD): 75%

— US20240182407A1, “QUINOLINE COMPOUND SALT OR CRYSTAL FORM, PREPARATION METHOD THEREFOR, AND APPLICATION THEREOF” (Nanjing Zenshine Pharmaceuticals Co., Ltd., priority 2021, published 2024)
